In paper PMC12520178, “Turn-engineering tunes the conformational rigidity of β-hairpin AMPs in achieving membrane selectivity and killing drug-resistant ESKAPE pathogens” (Chemical Science, 2025):
Values after ≈ are worked out from the molar mass of the structure shown. Like-named read-outs stand apart in the source and are kept apart here. Where a SMILES comes first, the peptide text is derived from it. Bridges are numbered along the chain shown (N, C = ends). [ ]: non-standard residue; d: D form. NMeR = CN[C@@H](CCCNC(=N)N)C(=O)O; dNMeR = CN[C@H](CCCNC(=N)N)C(=O)O

Assays:
[1] = test system: Klebsiella pneumoniae; assay type: cell-based
[2] = test system: Escherichia coli; assay type: cell-based
[3] = test system: Staphylococcus aureus; test: microbe, parasite or virus in culture; assay type: cell-based
[4] = test system: human red blood cells; details: red cells of human
[5] = test system: Acinetobacter baumannii; assay type: cell-based
[6] = test system: Pseudomonas aeruginosa; assay type: cell-based
[7] = test system: human red blood cells; test: Hemolysis assay against human red blood cells; details: ≥10% hemolysis against human RBCs; 4% (v/v) hRBCs in PBS, 1.5 h at 37 °C, 405 nm; n = 3
[8] = against E. coli, microbroth dilution, 5x10^5 cfu/mL, 20-24 h at 37 °C, turbidity 600 nm, n = 5, median

Row | SMILES | MIC (μM) kp [1] [µM] | MIC90 [2] [µM] | MIC (μM) ec [2] [µM] | MIC (μM) sa [3] [µM] | MHC10 (μM), minimum hemolytic concentration [4] [µM] | MIC (μM) ab [5] [µM] | MIC (μM) pa [6] [µM] | MIC90 [2, 8] [µM] | MHC10 (μM), minimum hemolytic concentration [7] [µM]
1 | CC(C)[C@@H](NC(=O)[C@@H](CCCNC(=N)N)N(C)C(=O)[C@H](C)NC(=O)[C@H](NC(=O)[C@@H](CCCNC(=N)N)NC(=O)[C@@H](C)NC(=O)[C@@H](Cc1ccc(O)cc1)NC(=O)[C@H](NC(=O)[C@H](NC(=O)[C@@H](Cc1c[nH]c2ccccc12)NC(=O)[C@H](N)CCCNC(=N)N)[C@H](C)O)C(C)C)C(C)C)C(=O)N[C@H](CCCNC(=N)N)C(=O)N[C@H](Cc1ccc(O)cc1)C(=O)N[C@H](CCCNC(=N)N)C(=O)N[C@H](CCCNC(=N)N)C(=O)N[C@@H](C(=O)N[C@H](Cc1c[nH]c2ccccc12)C(=O)O)[C@H](C)O [1f] (H-[dR][dW][dT][dV][dY][dA][dR][dV]A[dNMeR][dV][dR][dY][dR][dR][dT][dW]-OH) | 3.1 (≈ 7.16 µg/mL) | 0.4 (≈ 0.924 µg/mL) | 0.4 (≈ 0.924 µg/mL) | 0.8 (≈ 1.85 µg/mL) | 100 | 3.1 (≈ 7.16 µg/mL) | 3.1 (≈ 7.16 µg/mL) | – | –
2 | CC(C)[C@@H]1NC(=O)[C@H](CCCNC(=N)N)NC(=O)[C@H](Cc2ccccc2)NC(=O)[C@@H](NC(=O)[C@H](Cc2c[nH]c3ccccc23)NC(=O)[C@H](CCCNC(=N)N)NC(=O)[C@@H](N)CCCNC(=N)N)CSSC[C@@H](C(=O)N[C@@H](CCCNC(=N)N)C(N)=O)NC(=O)[C@H](CCCCN)NC(=O)[C@H](CCCNC(=N)N)NC(=O)[C@H](Cc2ccc(O)cc2)NC(=O)[C@@H]2CSSC[C@H](NC1=O)C(=O)N[C@@H](Cc1ccc(O)cc1)C(=O)N[C@H](C)C(=O)N(C)[C@@H](CCCNC(=N)N)C(=O)N[C@@H](Cc1ccccc1)C(=O)N2 [3a] (H-RRWCFRVCY[dA][NMeR]FCYRKCR-NH2; disulfide 4-17, 8-13) | – | – | – | – | – | – | – | 0.7 (≈ 1.74 µg/mL) | 12.5
3 | CC(C)[C@@H]1NC(=O)[C@H](CCCNC(=N)N)NC(=O)[C@H](Cc2ccccc2)NC(=O)[C@@H](NC(=O)[C@H](Cc2c[nH]c3ccccc23)NC(=O)[C@H](CCCNC(=N)N)NC(=O)[C@@H](N)CCCNC(=N)N)CSSC[C@@H](C(=O)N[C@@H](CCCNC(=N)N)C(N)=O)NC(=O)[C@H](CCCCN)NC(=O)[C@H](CCCNC(=N)N)NC(=O)[C@H](Cc2ccc(O)cc2)NC(=O)[C@@H]2CSSC[C@H](NC1=O)C(=O)N[C@@H](Cc1ccc(O)cc1)C(=O)N[C@H](C(C)C)C(=O)N(C)[C@@H](CCCNC(=N)N)C(=O)N[C@@H](Cc1ccccc1)C(=O)N2 [3b] (H-RRWCFRVCY[dV][NMeR]FCYRKCR-NH2; disulfide 4-17, 8-13) | – | – | – | – | – | – | – | 0.9 (≈ 2.26 µg/mL) | 6.25
4 | CC[C@H](C)[C@H](NC(=O)[C@H](CCCNC(=N)N)N(C)C(=O)[C@@H](C)NC(=O)[C@H](Cc1ccc(O)cc1)NC(=O)[C@@H](NC(=O)[C@@H](NC(=O)[C@H](CCCNC(=N)N)NC(=O)[C@H](Cc1ccccc1)NC(=O)[C@@H](NC(=O)[C@H](Cc1c[nH]c2ccccc12)NC(=O)[C@@H](N)CCCCN)[C@@H](C)O)C(C)C)[C@@H](C)O)C(=O)N[C@H](C(=O)N[C@@H](Cc1ccc(O)cc1)C(=O)N[C@@H](CCCNC(=N)N)C(=O)N[C@@H](CCCNC(=N)N)C(=O)N[C@H](C(=O)N[C@@H](CCCNC(=N)N)C(N)=O)[C@@H](C)O)[C@@H](C)O [4d] (H-KWTFRVTY[dA][NMeR]ITYRRTR-NH2) | 1.6 (≈ 3.66 µg/mL) | 0.4 (≈ 0.915 µg/mL) | – | 3.1 (≈ 7.09 µg/mL) | 100 | 0.8 (≈ 1.83 µg/mL) | 1.6 (≈ 3.66 µg/mL) | – | –
5 | CC[C@H](C)[C@H](NC(=O)CNC(=O)[C@H](CCCNC(=N)N)NC(=O)[C@H](Cc1ccc(O)cc1)NC(=O)[C@@H](NC(=O)[C@@H](NC(=O)[C@H](CCCNC(=N)N)NC(=O)[C@H](Cc1ccccc1)NC(=O)[C@@H](NC(=O)[C@H](Cc1c[nH]c2ccccc12)NC(=O)[C@@H](N)CCCCN)[C@@H](C)O)C(C)C)[C@@H](C)O)C(=O)N[C@H](C(=O)N[C@@H](Cc1ccc(O)cc1)C(=O)N[C@@H](CCCNC(=N)N)C(=O)N[C@@H](CCCNC(=N)N)C(=O)N[C@H](C(=O)N[C@@H](CCCNC(=N)N)C(N)=O)[C@@H](C)O)[C@@H](C)O [4c] (H-KWTFRVTYRGITYRRTR-NH2) | 6.3 (≈ 14.2 µg/mL) | 2.2 (≈ 4.97 µg/mL) | – | 12.5 (≈ 28.2 µg/mL) | 100 | 1.6 (≈ 3.62 µg/mL) | 6.3 (≈ 14.2 µg/mL) | – | –
6 | CC(C)C[C@@H](NC(=O)[C@@H](CCCNC(=N)N)NC(=O)CNC(=O)CNC(=O)[C@H](N)CCCNC(=N)N)C(=O)N[C@@H](C(=O)N[C@H](Cc1ccc(O)cc1)C(=O)N[C@@H](C(=O)N[C@H](CCCNC(=N)N)C(=O)N[C@@H](C)C(=O)N(C)[C@H](CCCNC(=N)N)C(=O)N[C@H](Cc1ccccc1)C(=O)N[C@@H](C(=O)N[C@@H](C(=O)N[C@@H](C(=O)N[C@@H](C(=O)NCC(=O)N[C@H](CCCNC(=N)N)C(N)=O)C(C)C)[C@H](C)O)C(C)C)[C@H](C)O)[C@H](C)O)[C@H](C)O [2f] (H-[dR]GG[dR][dL][dT][dY][dT][dR]A[dNMeR][dF][dT][dV][dT][dV]G[dR]-NH2) | 3.1 (≈ 6.45 µg/mL) | 0.4 (≈ 0.832 µg/mL) | 0.4 (≈ 0.832 µg/mL) | 2.3 (≈ 4.79 µg/mL) | >200 | 2.3 (≈ 4.79 µg/mL) | 1.6 (≈ 3.33 µg/mL) | – | –
7 | CC(C)C[C@H](NC(=O)[C@H](CCCNC(=N)N)NC(=O)CNC(=O)CNC(=O)[C@@H](N)CCCNC(=N)N)C(=O)N[C@H]1CSSC[C@@H](C(=O)N[C@H](C(=O)NCC(=O)N[C@@H](CCCNC(=N)N)C(N)=O)C(C)C)NC(=O)[C@H](C(C)C)NC(=O)[C@@H]2CSSC[C@H](NC(=O)[C@H](Cc3ccc(O)cc3)NC1=O)C(=O)N[C@@H](CCCNC(=N)N)C(=O)N[C@@H](CCCNC(=N)N)C(=O)N[C@@H](CCCNC(=N)N)C(=O)N[C@@H](Cc1ccccc1)C(=O)N2 [compound 2, reference compound] | 0.6 (≈ 1.29 µg/mL) | 0.3 (≈ 0.647 µg/mL) | 0.3 (≈ 0.647 µg/mL) | 3.1 (≈ 6.68 µg/mL) | 3.12 | 0.4 (≈ 0.862 µg/mL) | 0.6 (≈ 1.29 µg/mL) | – | –
8 | CC(C)C[C@H](NC(=O)[C@H](CCCNC(=N)N)NC(=O)CNC(=O)CNC(=O)[C@@H](N)CCCNC(=N)N)C(=O)N[C@H](C(=O)N[C@@H](Cc1ccc(O)cc1)C(=O)N[C@H](C(=O)N[C@@H](CCCNC(=N)N)C(=O)N[C@@H](CCCNC(=N)N)C(=O)N[C@@H](CCCNC(=N)N)C(=O)N[C@@H](Cc1ccccc1)C(=O)N[C@H](C(=O)N[C@H](C(=O)N[C@H](C(=O)N[C@H](C(=O)NCC(=O)N[C@@H](CCCNC(=N)N)C(N)=O)C(C)C)[C@@H](C)O)C(C)C)[C@@H](C)O)[C@@H](C)O)[C@@H](C)O [2c] (H-RGGRLTYTRRRFTVTVGR-NH2) | 3.1 (≈ 6.67 µg/mL) | 1 (≈ 2.15 µg/mL) | – | 6.3 (≈ 13.6 µg/mL) | >200 | 3.1 (≈ 6.67 µg/mL) | 3.1 (≈ 6.67 µg/mL) | – | –
9 | CC(C)[C@H](NC(=O)[C@H](CCCNC(=N)N)NC(=O)[C@H](C)NC(=O)[C@H](Cc1ccc(O)cc1)NC(=O)[C@@H](NC(=O)[C@@H](NC(=O)[C@H](Cc1c[nH]c2ccccc12)NC(=O)[C@@H](N)CCCNC(=N)N)[C@@H](C)O)C(C)C)C(=O)N[C@H](C)C(=O)N(C)[C@@H](CCCNC(=N)N)C(=O)N[C@H](C(=O)N[C@@H](CCCNC(=N)N)C(=O)N[C@@H](Cc1ccc(O)cc1)C(=O)N[C@@H](CCCNC(=N)N)C(=O)N[C@@H](CCCNC(=N)N)C(=O)N[C@H](C(=O)N[C@@H](Cc1c[nH]c2ccccc12)C(=O)O)[C@@H](C)O)C(C)C [1d] (H-RWTVYARV[dA][NMeR]VRYRRTW-OH) | 0.4 (≈ 0.924 µg/mL) | 0.4 (≈ 0.924 µg/mL) | 0.4 (≈ 0.924 µg/mL) | 0.6 (≈ 1.39 µg/mL) | 100 | 1.2 (≈ 2.77 µg/mL) | 2.4 (≈ 5.54 µg/mL) | – | –
10 | CC(C)[C@H](NC(=O)[C@H](CCCNC(=N)N)NC(=O)[C@H](Cc1ccccc1)NC(=O)[C@@H](NC(=O)[C@H](Cc1c[nH]c2ccccc12)NC(=O)[C@H](CCCNC(=N)N)NC(=O)[C@@H](N)CCCNC(=N)N)[C@@H](C)O)C(=O)N[C@H](C(=O)N[C@@H](Cc1ccc(O)cc1)C(=O)N[C@@H](CCCNC(=N)N)C(=O)NCC(=O)N[C@@H](Cc1ccccc1)C(=O)N[C@H](C(=O)N[C@@H](Cc1ccc(O)cc1)C(=O)N[C@@H](CCCNC(=N)N)C(=O)N[C@@H](CCCCN)C(=O)N[C@H](C(=O)N[C@@H](CCCNC(=N)N)C(N)=O)[C@@H](C)O)[C@@H](C)O)[C@@H](C)O [3c] (H-RRWTFRVTYRGFTYRKTR-NH2) | 6.3 (≈ 15.4 µg/mL) | 1.9 (≈ 4.65 µg/mL) | – | 6.3 (≈ 15.4 µg/mL) | 100 | 3.1 (≈ 7.59 µg/mL) | 6.3 (≈ 15.4 µg/mL) | – | –
11 | CC(C)C[C@H](NC(=O)[C@H](CCCNC(=N)N)NC(=O)CNC(=O)CNC(=O)[C@@H](N)CCCNC(=N)N)C(=O)N[C@H](C(=O)N[C@@H](Cc1ccc(O)cc1)C(=O)N[C@H](C(=O)N[C@@H](CCCNC(=N)N)C(=O)N[C@H](C)C(=O)N(C)[C@@H](CCCNC(=N)N)C(=O)N[C@@H](Cc1ccccc1)C(=O)N[C@H](C(=O)N[C@H](C(=O)N[C@H](C(=O)N[C@H](C(=O)NCC(=O)N[C@@H](CCCNC(=N)N)C(N)=O)C(C)C)[C@@H](C)O)C(C)C)[C@@H](C)O)[C@@H](C)O)[C@@H](C)O [2d] (H-RGGRLTYTR[dA][NMeR]FTVTVGR-NH2) | 0.8 (≈ 1.66 µg/mL) | 0.4 (≈ 0.832 µg/mL) | – | 3.1 (≈ 6.45 µg/mL) | 100 | 0.4 (≈ 0.832 µg/mL) | 1.6 (≈ 3.33 µg/mL) | – | –
